pKi: −log10 of the molar value.
Tests used:
α5β3γ2 GABAA receptors = biological target: T1, α5β3γ2 GABAA receptors (Homo sapiens, UniProt P18507+P31644); assay: Binding activity of test compounds on GABAAR ([3H]Ro15-1788 inhibition, Ltk cell membranes)
T1 construct: membranes
Procedure: The binding was performed on Ltk cells stably expressing GABAA receptors: α1β1γ2, α2β3γ2, α3β3γ2 and α5β3γ2 (provided by Merck Co., NJ, USA). Cells were seeded in 100 mm culture plates in DMEM/F12 medium containing 10% serum and antibiotics in 5% C02 and allowed to grow for 1-2 days. GABAAR expression was then induced by dexamethasone as follows: 0.5 μM for 1 day for α5 containing and 2 μM for 3 days for α1, α2 and α3 containing GABAARs. After induction, cells were collected by scraping into Dulbecco's Phosphate buffered saline (DPBS, pH 7.4, Invitrogen, Carlsbad, Calif., USA) and centrifuged at 150×g for 10 min. The pellet was washed twice by re-suspension and centrifugation. The cell pellets from at least 5 different preps were combined, suspended in the binding assay buffer (50 mM KH2PO4; 1 mM EDTA; 0.2 M KCl, pH 7.4) and membranes prepared by sonication (3-5 times, 30 sec) using Branson Sonifier 150 (G.Heinmann, Germany). Protein content was determined using BCA assay (Bio-Rad Labs, Reinach, Switzerland) with Bovine Serum Albumin (Sigma Aldrich, St. Louis, Mo., USA) as the standard. Aliquots were prepared and stored at −20° C. for further use in binding assays.
Saturation binding curves were obtained by incubating membranes with increasing concentrations (0.01-8 nM) of [^3H]Ro15-1788 (Flumazepil, 75-85 Ci/mmol, PerkinElmer, MA, USA), with nonspecific binding measured in the presence of 10 μM diazepam.
All binding assays were performed for 1 h at 4° C. in assay buffer. The total assay volume was 0.5 ml containing 0.2 mg/ml protein for α5 and 0.4 mg/ml for α1, α2, and α3 containing GABAAR membranes. Incubations were terminated by filtration through GF/B filters using a 24-Cell Harvestor (Brandel, Gaithersburg, Md., USA) followed by 3 washes with ice-cold assay buffer. Filters were transferred to scintillation vials, 5 ml scintillation liquid added, vortex-mixed and kept in dark. Next day, radioactivity was obtained using a scintillation counter (Beckman Coulter, Brea, Calif., USA). All assays were performed in triplicate.
Saturation and inhibition curves were obtained using GraphPad Prism software (GraphPad Software, Inc., CA, USA).

GABAA receptors (α5β2γ2) = biological target: T2, GABAA receptors (α5β2γ2) (Homo sapiens, UniProt P18507+P31644); assay: Positive allosteric modulator activity, potentiation of EC20 GABA current in oocytes; type: cell-based; details: read-out: GABA α5 functional potentiation
T2 construct: expressed in transfected cells; host or cells: oocytes injected with a mix of alpha, beta and gamma cDNA (1:1:10 by weight)
T2 sequence (P31644 32-462): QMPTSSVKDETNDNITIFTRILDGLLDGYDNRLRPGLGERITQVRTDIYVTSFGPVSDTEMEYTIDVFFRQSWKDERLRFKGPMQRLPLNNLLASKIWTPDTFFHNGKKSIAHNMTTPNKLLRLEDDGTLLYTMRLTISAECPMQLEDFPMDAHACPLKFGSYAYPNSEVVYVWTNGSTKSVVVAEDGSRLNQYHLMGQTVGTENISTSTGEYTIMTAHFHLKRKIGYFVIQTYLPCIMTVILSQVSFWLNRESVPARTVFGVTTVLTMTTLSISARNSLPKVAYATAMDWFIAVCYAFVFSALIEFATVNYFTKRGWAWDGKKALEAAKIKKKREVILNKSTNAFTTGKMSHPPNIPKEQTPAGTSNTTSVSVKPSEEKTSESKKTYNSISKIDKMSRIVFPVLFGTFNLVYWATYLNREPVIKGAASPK
T2 sequence (P47870 25-512 partner limits assumed): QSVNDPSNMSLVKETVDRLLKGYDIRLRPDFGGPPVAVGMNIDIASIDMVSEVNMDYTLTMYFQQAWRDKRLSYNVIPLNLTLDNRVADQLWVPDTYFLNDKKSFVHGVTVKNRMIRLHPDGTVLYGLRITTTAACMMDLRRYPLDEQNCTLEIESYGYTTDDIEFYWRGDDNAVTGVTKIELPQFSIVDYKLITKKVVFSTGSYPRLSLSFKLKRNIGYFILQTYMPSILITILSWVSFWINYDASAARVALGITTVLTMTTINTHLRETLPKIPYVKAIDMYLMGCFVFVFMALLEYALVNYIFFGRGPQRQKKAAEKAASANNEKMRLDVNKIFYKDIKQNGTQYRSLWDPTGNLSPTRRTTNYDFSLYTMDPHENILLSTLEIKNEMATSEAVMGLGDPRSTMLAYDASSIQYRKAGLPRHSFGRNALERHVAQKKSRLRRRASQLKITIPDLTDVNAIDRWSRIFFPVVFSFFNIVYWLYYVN
T2 sequence (P18507 40-475): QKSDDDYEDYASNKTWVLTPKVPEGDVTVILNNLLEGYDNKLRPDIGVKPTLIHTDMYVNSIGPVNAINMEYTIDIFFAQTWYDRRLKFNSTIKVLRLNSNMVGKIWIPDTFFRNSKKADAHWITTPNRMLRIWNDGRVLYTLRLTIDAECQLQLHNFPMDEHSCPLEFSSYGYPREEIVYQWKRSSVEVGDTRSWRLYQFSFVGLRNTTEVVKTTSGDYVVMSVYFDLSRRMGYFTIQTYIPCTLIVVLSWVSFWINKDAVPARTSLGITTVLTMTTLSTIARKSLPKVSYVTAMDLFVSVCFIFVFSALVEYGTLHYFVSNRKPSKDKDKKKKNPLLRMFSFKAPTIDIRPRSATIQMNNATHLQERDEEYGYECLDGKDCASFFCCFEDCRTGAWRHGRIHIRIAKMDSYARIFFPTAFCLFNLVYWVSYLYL
Procedure: On day 1, 1 ng/32 nL of GABAA […] cDNA was injected into one oocyte. Test starts on day 2. The cDNA injected to the oocytes was a mix of alpha, beta and gamma, their ratio is 1:1:10 (by weight) and the total weight of the mixed 3 subunits to be injected in one oocyte was 1 ng in 32 nl volume. The injected oocytes can also be tested on day 3. In such case, the cDNA amount injected to the oocytes should be reduced by 20%.
1). 8 oocytes were placed in 8 chambers of OpusXpress and superfused with Modified Barth's Saline (MBS) at 3 mL/min. Glass electrodes back-filled with 3M KCl (0.5-3 megaohms) were used.
3). […] Oocytes were washed with MBS for 5-10 min.
2). […] Divide Itest by IGABA to obtain potentiation (%).
3). Discard all tested oocytes, new oocytes were used and the above steps 1) and 2) were repeated to test second concentration of the same compound. Each oocyte was used for only one concentration test for a single test compound. The steps were repeated for other test compounds.

T1 sequence (P31644 32-462): as the sequence (P31644 32-462) above
T1 sequence (P28472 26-473 partner): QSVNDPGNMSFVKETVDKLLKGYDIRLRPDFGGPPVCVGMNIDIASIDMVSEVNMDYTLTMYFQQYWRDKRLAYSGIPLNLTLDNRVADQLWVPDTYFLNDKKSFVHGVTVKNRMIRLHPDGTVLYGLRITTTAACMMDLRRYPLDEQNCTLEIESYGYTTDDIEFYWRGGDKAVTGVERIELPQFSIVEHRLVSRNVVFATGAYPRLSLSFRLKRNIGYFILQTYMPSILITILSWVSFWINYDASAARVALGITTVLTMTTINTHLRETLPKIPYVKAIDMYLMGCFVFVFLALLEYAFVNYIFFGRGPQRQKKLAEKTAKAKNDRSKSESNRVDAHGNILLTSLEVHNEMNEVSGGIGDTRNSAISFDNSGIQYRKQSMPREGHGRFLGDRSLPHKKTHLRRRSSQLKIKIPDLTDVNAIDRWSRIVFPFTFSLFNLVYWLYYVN
T1 sequence (P18507 40-475): as the sequence (P18507 40-475) above

Structure (SMILES) | pKi (α5β3γ2 GABAA receptors) | activation at 0.1 µM (GABAA receptors (α5β2γ2)) [%]
CCOC(=O)c1ncn2c1Cc1c(C)nnn1-c1cc(OC)ccc1-2 [Compound 1] | > 7.00 | 20 to 49
CCOC(=O)c1ncn2c1Cc1c(C)nnn1-c1cc(F)ccc1-2 [Compound 2] | > 7.00 | 20 to 49
CCOC(=O)c1ncn2c1Cc1c(C)nnn1-c1ccccc1-2 [Compound 3] | > 7.00 | –
CCOC(=O)c1ncn2c1Cc1c(Cc3ccccc3)nnn1-c1cc(OC)ccc1-2 [Compound 4] | > 7.00 | –
CCOC(=O)c1ncn2c1Cc1c(Cc3ccccc3)nnn1-c1ccccc1-2 [Compound 5] | > 7.00 | –
CCOC(=O)c1ncn2c1Cc1c(Cc3ccccc3)nnn1-c1cc(F)ccc1-2 [Compound 6] | > 7.00 | –
CCOC(=O)c1ncn2c1Cc1c(C)cnn1-c1cc(OC)ccc1-2 [Compound 7] | > 7.00 | –
CCOC(=O)c1ncn2c1Cc1c(Cc3ccccc3)cnn1-c1cc(OC)ccc1-2 [Compound 8] | > 7.00 | –
CCOC(=O)c1ncn2c1Cc1c(COc3ccccc3)nnn1-c1cc(OC)ccc1-2 [Compound 9] | > 7.00 | 20 to 49
CCOC(=O)c1ncn2c1Cc1c(COc3ccc(F)cc3)nnn1-c1cc(OC)ccc1-2 [Compound 10] | > 7.00 | –
CCOC(=O)c1ncn2c1Cc1c(COc3cccc(OC)c3)nnn1-c1cc(OC)ccc1-2 [Compound 11] | > 7.00 | 20 to 49
CCOC(=O)c1ncn2c1Cc1c(COc3ccc(C)cc3C)nnn1-c1cc(OC)ccc1-2 [Compound 12] | > 7.00 | –
CCOC(=O)c1ncn2c1Cc1c(Cc3ccc(C)cc3)nnn1-c1cc(F)ccc1-2 [Compound 44] | > 7.00 | –
CCOC(=O)c1ncn2c1Cc1c(Cc3ccc(Cl)cc3)nnn1-c1cc(F)ccc1-2 [Compound 45] | > 7.00 | 20 to 49
CCOC(=O)c1ncn2c1Cc1c(Cc3ccc(Cl)cc3)nnn1-c1ccccc1-2 [Compound 47] | > 7.00 | –
CCOC(=O)c1ncn2c1Cc1c(CN3CCCC3)nnn1-c1cc(OC)ccc1-2 [Compound 48] | > 7.00 | 20 to 49
CCOC(=O)c1ncn2c1Cc1c(CN3CCOCC3)nnn1-c1cc(OC)ccc1-2 [Compound 49] | > 7.00 | –
CCOC(=O)c1ncn2c1Cc1c(CN(C)Cc3ccccc3)nnn1-c1cc(OC)ccc1-2 [Compound 51] | > 7.00 | –
CCOC(=O)c1ncn2c1Cc1c(Cc3cccc(Cl)c3)nnn1-c1cc(OC)ccc1-2 [Compound 52] | > 7.00 | –
CCOC(=O)c1ncn2c1Cc1c(Cc3cccc(C#N)c3)nnn1-c1cc(OC)ccc1-2 [Compound 53] | > 7.00 | –

Structure (SMILES) | pKi (α5β3γ2 GABAA receptors) | activation at 0.1 µM (GABAA receptors (α5β2γ2)) [%]
CCOC(=O)c1ncn2c1Cn1c(COc3ccccc3)nnc1-c1cc(OC)ccc1-2 [Compound 55] | > 7.00 | 20 to 49
CCOC(=O)c1ncn2c1Cn1c(COc3ccc(F)cc3)nnc1-c1cc(OC)ccc1-2 [Compound 56] | > 7.00 | –
CCOC(=O)c1ncn2c1Cn1c(COC)nnc1-c1cc(OC)ccc1-2 [Compound 103] | > 7.00 | –
CCOC(=O)c1ncn2c1Cn1c(Oc3ccccc3)nnc1-c1cc(OC)ccc1-2 [Compound 104] | > 7.00 | –
CCOC(=O)c1ncn2c1Cn1c(Oc3cccc(OC)c3)nnc1-c1cc(OC)ccc1-2 [Compound 105] | > 7.00 | –
CCOC(=O)c1ncn2c1Cn1c(Br)nnc1-c1cc(OC)ccc1-2 [Compound 106] | > 7.00 | –
CCOC(=O)c1ncn2c1Cc1c(COc3ccccc3)nnn1-c1cc(F)ccc1-2 [Compound 107] | > 7.00 | –
CCOC(=O)c1ncn2c1Cc1c(Cc3ccccc3Cl)nnn1-c1cc(OC)ccc1-2 [Compound 108] | > 7.00 | –
Cc1noc(-c2ncn3c2Cc2c(Cc4ccccc4)nnn2-c2cc(F)ccc2-3)n1 [Compound 109] | > 7.00 | 20 to 49
Cc1noc(-c2ncn3c2Cc2c(C)nnn2-c2cc(F)ccc2-3)n1 [Compound 110] | – | 20 to 49
CCOC(=O)c1ncn2c1Cc1c(Cc3cccnc3)nnn1-c1cc(C)ccc1-2 [Compound 111] | > 7.00 | 20 to 49
Cc1nnn2c1Cc1c(C(=O)OC(C)C)ncn1-c1ccc(F)cc1-2 [Compound 112] | > 7.00 | –
Cc1nnn2c1Cc1c(C(=O)OCC(C)(C)C)ncn1-c1ccc(F)cc1-2 [Compound 113] | – | > 50
Cc1nnn2c1Cc1c(C(=O)OCC(F)(F)F)ncn1-c1ccc(F)cc1-2 [Compound 114] | > 7.00 | > 50
COc1ccc2c(c1)-c1nnc(COc3ccccc3)n1Cc1c(-c3nc(C)no3)ncn1-2 [Compound 118] | > 7.00 | 20 to 49
COc1ccc2c(c1)-c1nnc(COc3ccccc3)n1Cc1c(C(=O)OC(C)C)ncn1-2 [Compound 120] | > 7.00 | 20 to 49
COc1ccc2c(c1)-c1nnc(COc3ccccc3)n1Cc1c(C#N)ncn1-2 [Compound 122] | > 7.00 | –
Cc1noc(-c2ncn3c2Cc2c(C)nnn2-c2ccccc2-3)n1 [Compound 126] | > 7.00 | 20 to 49
Cc1nc(-c2ncn3c2Cc2c(C)nnn2-c2ccccc2-3)no1 [Compound 127] | > 7.00 | 20 to 49
COCc1nnc2n1Cc1c(-c3nc(C)no3)ncn1-c1ccc(OC)cc1-2 [Compound 128] | > 7.00 | 20 to 49

Structure (SMILES) | pKi (α5β3γ2 GABAA receptors) | activation at 0.1 µM (GABAA receptors (α5β2γ2)) [%]
COCc1nnc2n1Cc1c(Br)ncn1-c1ccc(OC)cc1-2 [Compound 129] | > 7.00 | –
COCc1nnc2n1Cc1c(-c3nc(C(C)C)no3)ncn1-c1ccc(OC)cc1-2 [Compound 130] | > 7.00 | 20 to 49
Cc1nnn2c1Cc1c(-c3nc(C(C)C)no3)ncn1-c1ccccc1-2 [Compound 132] | > 7.00 | 20 to 49
Cc1nnn2c1Cc1c(-c3noc(C(C)C)n3)ncn1-c1ccccc1-2 [Compound 133] | > 7.00 | –
CCOC(=O)c1ncn2c1Cn1c(COc3ccccc3)nnc1-c1cc(F)ccc1-2 [Compound 137] | > 7.00 | 20 to 49
Cc1nc(-c2ncn3c2Cc2c(C)nnn2-c2cc(F)ccc2-3)no1 [Compound 145] | > 7.00 | > 50
CC(C)c1nc(-c2ncn3c2Cn2c(COc4ccccc4)nnc2-c2cc(F)ccc2-3)no1 [Compound 147] | > 7.00 | 20 to 49
Cc1nc(-c2ncn3c2Cn2c(COc4ccccc4)nnc2-c2cc(F)ccc2-3)no1 [Compound 148] | > 7.00 | 20 to 49
Cc1nnn2c1Cc1c(-c3noc(C(F)(F)F)n3)ncn1-c1ccc(F)cc1-2 [Compound 150] | > 7.00 | –
Cc1nnn2c1Cc1c(-c3ncon3)ncn1-c1ccc(F)cc1-2 [Compound 151] | > 7.00 | –
CC(C)OC(=O)c1ncn2c1Cn1c(COc3ccccc3)nnc1-c1cc(F)ccc1-2 [Compound 156] | > 7.00 | –
N#Cc1ncn2c1Cn1c(COc3ccccc3)nnc1-c1cc(F)ccc1-2 [Compound 157] | > 7.00 | –
Fc1ccc2c(c1)-c1nnc(COc3ccccc3)n1Cc1c(-c3noc(C(F)(F)F)n3)ncn1-2 [Compound 159] | > 7.00 | –
C#Cc1ncn2c1Cc1c(C)nnn1-c1ccccc1-2 [Compound 161] | > 7.00 | –
COCc1nnc2n1Cc1c(-c3noc(C)n3)ncn1-c1ccc(OC)cc1-2 [Compound 164] | > 7.00 | –
COc1ccc2c(c1)-c1nnc(COCc3ccccc3)n1Cc1c(-c3noc(C)n3)ncn1-2 [Compound 165] | > 7.00 | –
COc1ccc2c(c1)-c1nnc(COCc3ccccc3)n1Cc1c(C#N)ncn1-2 [Compound 166] | > 7.00 | –
COc1ccc2c(c1)-n1nnc(C)c1Cc1c(-c3nc(C)no3)ncn1-2 [Compound 167] | > 7.00 | –
COc1ccc2c(c1)-n1nnc(COc3cccc(F)c3)c1Cc1c(-c3noc(C)n3)ncn1-2 [Compound 168] | > 7.00 | –
COCc1nnc2n1Cc1c(-c3noc(C(C)C)n3)ncn1-c1ccc(OC)cc1-2 [Compound 169] | > 7.00 | –
